Measured values taken from patent US7094752B2 (Chiron Corporation, priority 1997, dated 2006).
Where two headings read alike, the source gives them in different places. Marks after values point to notes of the source that are not given here. Square brackets hold non-standard residues; d marks the D form. Peptide text beside a SMILES is read from it.

Legend:
soluble uPAR [1] = biological target: T1, soluble uPAR (Homo sapiens, UniProt Q03405); conditions: for receptor binding activity, alanine scan of peptide 9: compared to peptide 9; for % Inhibition 2.5 uM: 2500.0; for % Inhibition 5 uM: 5000.0
T1 sequence (Q03405 23-305 limits assumed): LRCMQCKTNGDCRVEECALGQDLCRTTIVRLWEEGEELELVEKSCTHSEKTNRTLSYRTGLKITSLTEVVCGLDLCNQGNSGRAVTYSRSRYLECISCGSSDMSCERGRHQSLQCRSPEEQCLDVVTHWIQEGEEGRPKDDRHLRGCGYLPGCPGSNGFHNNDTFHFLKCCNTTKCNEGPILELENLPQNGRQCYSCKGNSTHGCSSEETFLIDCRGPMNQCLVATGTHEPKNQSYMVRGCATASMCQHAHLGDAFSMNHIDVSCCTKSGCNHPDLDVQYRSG

soluble uPAR [2] = biological target: T1, soluble uPAR; type: binding; design: sUPAR, soluble truncated form of the urokinase receptor; made in house; host or cells: baculovirus-infected Sf9 insect cells; conditions: for % Inhibition 2.5 uM: 2500.0; for % Inhibition 5 uM: 5000.0
Experimental: Streptavidin, 100 μl (0.1 mg/ml) in 50 mM Na2CO3, pH 9.6, was added to MaxiSorp wells (Nunc), incubated overnight at 4 C, and then washed with PBS/BSA. Biotinylated sUPAR (25 nM in PBS/BSA) was added to the wells and incubated for 2 hours at room temperature prior to washing. Competitive peptide inhibitors were added to the wells immediately prior to addition of the bacteriophage. The wells were incubated for one hour at room temperature, then washed and bound bacteriophage eluted with 6M urea in 0.1N HCl, pH 2.5. After 15 minutes, the urea eluate was brought to neutral pH by addition of 2M Tris base and the bacteriophage titers of input stocks and elutions measured by plaque formation assay. Results were expressed as the percent of input bacteriophage which bind to the wells. Alternatively, the amount of bacteriophage was determined in an ELISA where phage were preincubated with HRP-conjugated anti-M13 antibody for 30 minutes at room temperature before dispensing into wells prepared as above and incubated for one hour at room temperature. The final anti-M13 conjugate dilution was 1:4000. After washing, TMB substrate (100 μl/well) was added and color development was stopped with 0.8N H2SO4 (100 μl/well). The absorbance at 450 nm was then measured in a 96 well plate reader.
In a uPAR binding assay, the following analogs were tested in a competition with phage displaying either peptide 25 or peptide 9. The analogs comprise both natural and unnatural amino acids.
The analogs were tested in an assay utilizing soluble uPAR, similar to the method described in Example 2. The analogs were tested for their ability to compete with phage displaying either peptide 9 or peptide 25. Analogs 3–61 were tested in competition with peptide 25. Analogs 62–96 were tested in competition with peptide 9. Approximately 10^8 plaque forming units of the phage were used in the assay.
The analogs were tested at a concentration at 40 μM in the uPAR competition assay with phage displaying peptide 25. The results below show which analogs were active.
Analogs 31–61 were tested for their ability to compete with phage displaying peptide 25. The active analogs were tested further at two concentrations, 5 μM and 2.5 μM. These concentrations were calculated based on the synthesis reactions. However, the sequences * were further tested and determined to contain high amounts of amino acids and the quantity tested could have been higher than 5 μM or 2.5 μM.

Row | Molecule | receptor binding activity, alanine scan of peptide 9 (soluble uPAR [1]) | % Inhibition 2.5 uM (soluble uPAR [1]) | % Inhibition 5 uM (soluble uPAR [1]) [%] | also measured
1 | AEFFKLGPNGYVALHSA [Analog 76] | destroyed receptor binding activity | – | – | –
2 | AEFFKLGPNGYAYLHSA [Analog 75] | destroyed receptor binding activity | – | – | –
3 | CC(C)C[C@H](NC(=O)[C@H](CCCCN)NC(=O)[C@H](Cc1ccccc1)NC(=O)[C@H](Cc1ccccc1)NC(=O)[C@@H](CCC(=O)O)NC(=O)[C@H](C)N)C(=O)NCC(=O)N1CCC[C@H]1C(=O)N[C@@H](CC(N)=O)C(=O)NCC(=O)N[C@@H](Cc1ccc(O)cc1)C(=O)N[C@H](C(=O)N[C@@H](Cc1ccc(O)cc1)C(=O)N[C@@H](CC(C)C)C(=O)N[C@@H](Cc1c[nH]cn1)C(=O)N[C@@H](CO)C(=O)N[C@@H](C)C(N)=O)C(C)C [Analog 83] (H-A[dE]FFKLGPNGYVYLHSA-NH2) | – | 44% | 59 | –
4 | H-AESTFHHLSLGYMYTLN-NH2 [Analog 34] | – | – | – | % Inhibition 2.5 uM (soluble uPAR [2]): 38%; % Inhibition 5 uM (soluble uPAR [2]): 47%
5 | CC(C)C[C@H](NC(=O)[C@H](CCCCN)NC(=O)[C@H](Cc1ccccc1)NC(=O)[C@H](Cc1ccccc1)NC(=O)[C@H](CCC(=O)O)NC(=O)[C@H](C)N)C(=O)NCC(=O)N1CCC[C@H]1C(=O)N[C@@H](CC(N)=O)C(=O)NCC(=O)N[C@@H](Cc1ccc(O)cc1)C(=O)N[C@H](C(=O)N[C@@H](Cc1ccc(O)cc1)C(=O)N[C@@H](CC(C)C)C(=O)N[C@@H](Cc1c[nH]cn1)C(=O)N[C@@H](CO)C(=O)N[C@H](C)C(N)=O)C(C)C [Analog 96] (H-AEFFKLGPNGYVYLHS[dA]-NH2) | – | 38* % | 40 | –
6 | AEFFKLGPNGAVYLHSA [Analog 74] | destroyed receptor binding activity | – | – | –
7 | CSCC[C@H](NC(=O)[C@H](Cc1ccc(O)cc1)NC(=O)CNC(=O)[C@H](CC(C)C)NC(=O)[C@H](CO)NC(=O)[C@H](CC(C)C)NC(=O)[C@H](Cc1c[nH]cn1)NC(=O)[C@H](Cc1c[nH]cn1)NC(=O)[C@H](Cc1ccc(O)cc1)NC(=O)[C@@H](NC(=O)[C@H](CO)NC(=O)[C@H](CCC(=O)O)NC(=O)[C@@H](C)N)[C@@H](C)O)C(=O)N[C@@H](Cc1ccc(O)cc1)C(=O)N[C@H](C(=O)N[C@@H](CC(C)C)C(=O)N[C@@H](CC(N)=O)C(N)=O)[C@@H](C)O [Analog 46] (H-[dA]ESTYHHLSLGYMYTLN-NH2) | – | – | – | % Inhibition 2.5 uM (soluble uPAR [2]): 41%; % Inhibition 5 uM (soluble uPAR [2]): 57%
8 | CC(C)C[C@H](NC(=O)[C@H](CCCCN)NC(=O)[C@H](Cc1ccccc1)NC(=O)[C@H](Cc1ccccc1)NC(=O)[C@H](CCC(=O)O)NC(=O)[C@H](C)N)C(=O)NCC(=O)N1CCC[C@H]1C(=O)N[C@@H](CC(N)=O)C(=O)NCC(=O)N[C@@H](Cc1ccc(O)cc1)C(=O)N[C@H](C(=O)N[C@@H](Cc1ccc(O)cc1)C(=O)N[C@@H](CC(C)C)C(=O)N[C@H](Cc1c[nH]cn1)C(=O)N[C@@H](CO)C(=O)N[C@@H](C)C(N)=O)C(C)C [Analog 94] (H-AEFFKLGPNGYVYL[dH]SA-NH2) | – | 36% | 41 | –
9 | CSCC[C@H](NC(=O)[C@H](Cc1ccc(O)cc1)NC(=O)CNC(=O)[C@H](CC(C)C)NC(=O)[C@@H](CO)NC(=O)[C@H](CC(C)C)NC(=O)[C@H](Cc1c[nH]cn1)NC(=O)[C@H](Cc1c[nH]cn1)NC(=O)[C@H](Cc1ccc(O)cc1)NC(=O)[C@@H](NC(=O)[C@H](CO)NC(=O)[C@H](CCC(=O)O)NC(=O)[C@H](C)N)[C@@H](C)O)C(=O)N[C@@H](Cc1ccc(O)cc1)C(=O)N[C@H](C(=O)N[C@@H](CC(C)C)C(=O)N[C@@H](CC(N)=O)C(N)=O)[C@@H](C)O [Analog 54] (H-AESTYHHL[dS]LGYMYTLN-NH2) | – | – | – | % Inhibition 2.5 uM (soluble uPAR [2]): 73%; % Inhibition 5 uM (soluble uPAR [2]): 86%
10 | CC(C)C[C@H](NC(=O)[C@H](CCCCN)NC(=O)[C@H](Cc1ccccc1)NC(=O)[C@H](Cc1ccccc1)NC(=O)[C@H](CCC(=O)O)NC(=O)[C@H](C)N)C(=O)NCC(=O)N1CCC[C@H]1C(=O)N[C@@H](CC(N)=O)C(=O)N[C@H](C)C(=O)N[C@@H](Cc1ccc(O)cc1)C(=O)N[C@H](C(=O)N[C@@H](Cc1ccc(O)cc1)C(=O)N[C@@H](CC(C)C)C(=O)N[C@@H](Cc1c[nH]cn1)C(=O)N[C@@H](CO)C(=O)N[C@@H](C)C(N)=O)C(C)C [Analog 81] (H-AEFFKLGPN[dA]YVYLHSA-NH2) | – | 79% | 80 | –
11 | AAFFKLGPNGYVYLHSA [Analog 65] | decreased but did not destroy | – | – | –
12 | CC(C)C[C@H](NC(=O)[C@H](CCCCN)NC(=O)[C@H](Cc1ccccc1)NC(=O)[C@H](Cc1ccccc1)NC(=O)[C@H](CCC(=O)O)NC(=O)[C@H](C)N)C(=O)NCC(=O)N1CCC[C@H]1C(=O)N[C@@H](CC(N)=O)C(=O)N[C@H](CO)C(=O)N[C@@H](Cc1ccc(O)cc1)C(=O)N[C@H](C(=O)N[C@@H](Cc1ccc(O)cc1)C(=O)N[C@@H](CC(C)C)C(=O)N[C@@H](Cc1c[nH]cn1)C(=O)N[C@@H](CO)C(=O)N[C@@H](C)C(N)=O)C(C)C [Analog 80] (H-AEFFKLGPN[dS]YVYLHSA-NH2) | – | 89% | 95 | –
13 | AEFFKAGPNGYVYLHSA [Analog 69] | destroyed receptor binding activity | – | – | –
14 | CC(C)C[C@H](NC(=O)[C@H](CCCCN)NC(=O)[C@H](Cc1ccccc1)NC(=O)[C@H](Cc1ccccc1)NC(=O)[C@H](CCC(=O)O)NC(=O)[C@H](C)N)C(=O)NCC(=O)N1CCC[C@H]1C(=O)N[C@@H](CC(N)=O)C(=O)NCC(=O)N[C@@H](Cc1ccc(O)cc1)C(=O)N[C@H](C(=O)N[C@@H](Cc1ccc(O)cc1)C(=O)N[C@@H](CC(C)C)C(=O)N[C@@H](Cc1c[nH]cn1)C(=O)N[C@H](CO)C(=O)N[C@@H](C)C(N)=O)C(C)C [Analog 95] (H-AEFFKLGPNGYVYLH[dS]A-NH2) | – | 47% | 59 | –
15 | CC(C)C[C@H](NC(=O)[C@H](CCCCN)NC(=O)[C@H](Cc1ccccc1)NC(=O)[C@H](Cc1ccccc1)NC(=O)[C@H](CCC(=O)O)NC(=O)[C@H](C)N)C(=O)NCC(=O)N1CCC[C@@H]1C(=O)N[C@@H](CC(N)=O)C(=O)NCC(=O)N[C@@H](Cc1ccc(O)cc1)C(=O)N[C@H](C(=O)N[C@@H](Cc1ccc(O)cc1)C(=O)N[C@@H](CC(C)C)C(=O)N[C@@H](Cc1c[nH]cn1)C(=O)N[C@@H](CO)C(=O)N[C@@H](C)C(N)=O)C(C)C [Analog 88] (H-AEFFKLG[dP]NGYVYLHSA-NH2) | – | 80* % | 76 | –
16 | AEFFKLGPNGYVYAHSA [Analog 77] | decreased but did not destroy | – | – | –
17 | CC(C)C[C@H](NC(=O)[C@H](CCCCN)NC(=O)[C@H](Cc1ccccc1)NC(=O)[C@H](Cc1ccccc1)NC(=O)[C@H](CCC(=O)O)NC(=O)[C@@H](C)N)C(=O)NCC(=O)N1CCC[C@H]1C(=O)N[C@@H](CC(N)=O)C(=O)NCC(=O)N[C@@H](Cc1ccc(O)cc1)C(=O)N[C@H](C(=O)N[C@@H](Cc1ccc(O)cc1)C(=O)N[C@@H](CC(C)C)C(=O)N[C@@H](Cc1c[nH]cn1)C(=O)N[C@@H](CO)C(=O)N[C@@H](C)C(N)=O)C(C)C [Analog 82] (H-[dA]EFFKLGPNGYVYLHSA-NH2) | – | 24* % | 41 | –
18 | CC(C)C[C@H](NC(=O)[C@H](CCCCN)NC(=O)[C@H](Cc1ccccc1)NC(=O)[C@H](Cc1ccccc1)NC(=O)[C@H](CCC(=O)O)NC(=O)[C@H](C)N)C(=O)NCC(=O)N1CCC[C@H]1C(=O)N[C@H](CC(N)=O)C(=O)NCC(=O)N[C@@H](Cc1ccc(O)cc1)C(=O)N[C@H](C(=O)N[C@@H](Cc1ccc(O)cc1)C(=O)N[C@@H](CC(C)C)C(=O)N[C@@H](Cc1c[nH]cn1)C(=O)N[C@@H](CO)C(=O)N[C@@H](C)C(N)=O)C(C)C [Analog 89] (H-AEFFKLGP[dN]GYVYLHSA-NH2) | – | 15% | 13 | –
19 | AEFAKLGPNGYVYLHSA [Analog 67] | decreased but did not destroy | – | – | –
20 | CC(C)C[C@H](NC(=O)[C@H](CCCCN)NC(=O)[C@H](Cc1ccccc1)NC(=O)[C@H](Cc1ccccc1)NC(=O)[C@H](CCC(=O)O)NC(=O)[C@H](C)N)C(=O)NCC(=O)N1CCC[C@H]1C(=O)N[C@@H](CC(N)=O)C(=O)NCC(=O)N[C@@H](Cc1ccc(O)cc1)C(=O)N[C@H](C(=O)N[C@H](Cc1ccc(O)cc1)C(=O)N[C@@H](CC(C)C)C(=O)N[C@@H](Cc1c[nH]cn1)C(=O)N[C@@H](CO)C(=O)N[C@@H](C)C(N)=O)C(C)C [Analog 92] (H-AEFFKLGPNGYV[dY]LHSA-NH2) | – | 8.5% | 3.3 | –
